In the CheMixHub viscosity set:

Experiment: xn = mol fraction of the nth substance listed

CCOC(=O)c1ccccc1 + CCCCCCCC
101 kPa
Conditions | viscosity [mPa·s]
298.15 K, x2 = 0.0634 | 1.743
298.15 K, x2 = 0.1034 | 1.624
298.15 K, x2 = 0.1463 | 1.503
298.15 K, x2 = 0.1843 | 1.405
298.15 K, x2 = 0.2315 | 1.299
298.15 K, x2 = 0.2774 | 1.203
298.15 K, x2 = 0.3224 | 1.125
298.15 K, x2 = 0.4189 | 0.973
298.15 K, x2 = 0.4608 | 0.92
298.15 K, x2 = 0.5113 | 0.861
298.15 K, x2 = 0.5549 | 0.813
298.15 K, x2 = 0.6018 | 0.767
298.15 K, x2 = 0.6476 | 0.726
298.15 K, x2 = 0.6978 | 0.686
298.15 K, x2 = 0.7588 | 0.644
298.15 K, x2 = 0.8037 | 0.616
298.15 K, x2 = 0.8646 | 0.583
298.15 K, x2 = 0.9214 | 0.556
303.15 K, x1 = 0.1144 | 0.526
303.15 K, x1 = 0.2227 | 0.58
303.15 K, x1 = 0.3291 | 0.655
303.15 K, x1 = 0.4327 | 0.738
303.15 K, x1 = 0.532 | 0.837
303.15 K, x1 = 0.6312 | 0.961
303.15 K, x1 = 0.7281 | 1.11
303.15 K, x1 = 0.8205 | 1.29
303.15 K, x1 = 0.9123 | 1.505
308.15 K, x1 = 0.1144 | 0.499
308.15 K, x1 = 0.2227 | 0.552
308.15 K, x1 = 0.3291 | 0.616
308.15 K, x1 = 0.4327 | 0.697
308.15 K, x1 = 0.532 | 0.786
308.15 K, x1 = 0.6312 | 0.896
308.15 K, x1 = 0.7281 | 1.033
308.15 K, x1 = 0.8205 | 1.197
308.15 K, x1 = 0.9123 | 1.385
308.15 K, x2 = 0.0649 | 1.485
308.15 K, x2 = 0.1092 | 1.382
308.15 K, x2 = 0.1488 | 1.3
308.15 K, x2 = 0.193 | 1.212
308.15 K, x2 = 0.2347 | 1.13
308.15 K, x2 = 0.2789 | 1.054
308.15 K, x2 = 0.3252 | 0.98
308.15 K, x2 = 0.3696 | 0.919
308.15 K, x2 = 0.4206 | 0.854
308.15 K, x2 = 0.4626 | 0.807
308.15 K, x2 = 0.5118 | 0.757
308.15 K, x2 = 0.5624 | 0.709
308.15 K, x2 = 0.5958 | 0.682
308.15 K, x2 = 0.6528 | 0.639
308.15 K, x2 = 0.7049 | 0.605
308.15 K, x2 = 0.756 | 0.575
308.15 K, x2 = 0.8027 | 0.55
308.15 K, x2 = 0.8565 | 0.525
308.15 K, x2 = 0.9175 | 0.501
313.15 K, x1 = 0.1144 | 0.468
313.15 K, x1 = 0.2227 | 0.516
313.15 K, x1 = 0.3291 | 0.574
313.15 K, x1 = 0.4327 | 0.649
313.15 K, x1 = 0.532 | 0.732
313.15 K, x1 = 0.6312 | 0.835
313.15 K, x1 = 0.7281 | 0.961
313.15 K, x1 = 0.8205 | 1.105
313.15 K, x1 = 0.9123 | 1.277
318.15 K, x2 = 0.0385 | 1.272
318.15 K, x2 = 0.0833 | 1.188
318.15 K, x2 = 0.1243 | 1.117
318.15 K, x2 = 0.1716 | 1.038
318.15 K, x2 = 0.2145 | 0.972
318.15 K, x2 = 0.263 | 0.905
318.15 K, x2 = 0.3062 | 0.85
318.15 K, x2 = 0.356 | 0.793
318.15 K, x2 = 0.4002 | 0.747
318.15 K, x2 = 0.4505 | 0.698
318.15 K, x2 = 0.4957 | 0.662
318.15 K, x2 = 0.5474 | 0.622
318.15 K, x2 = 0.5939 | 0.592
318.15 K, x2 = 0.6472 | 0.56
318.15 K, x2 = 0.6945 | 0.536
318.15 K, x2 = 0.7483 | 0.51
318.15 K, x2 = 0.7987 | 0.491
318.15 K, x2 = 0.8549 | 0.469
318.15 K, x2 = 0.9034 | 0.452

CCCNCCC + CCCOCCO
viscosity [mPa·s], 101.33 kPa
Conditions | 298.15 K | 308.15 K | 318.15 K
x2 = 0.0247 | 0.53 | 0.463 | 0.401
x2 = 0.075 | 0.592 | 0.511 | 0.435
x2 = 0.125 | 0.657 | 0.564 | 0.473
x2 = 0.1902 | 0.753 | 0.636 | 0.529
x2 = 0.2692 | 0.889 | 0.737 | 0.602
x2 = 0.3692 | 1.09 | 0.883 | 0.709
x2 = 0.4334 | 1.228 | 0.985 | 0.782
x2 = 0.476 | 1.329 | 1.058 | 0.833
x2 = 0.5289 | 1.463 | 1.153 | 0.903
x2 = 0.623 | 1.686 | 1.318 | 1.021
x2 = 0.723 | 1.94 | 1.507 | 1.157
x2 = 0.8063 | 2.136 | 1.656 | 1.269
x2 = 0.9114 | 2.293 | 1.78 | 1.362
x2 = 0.9598 | 2.322 | 1.846 | 1.413
x2 = 0.9731 | 2.333 | 1.863 | 1.428

CCCNCCC + CCCO
viscosity [mPa·s], 101.33 kPa
Conditions | x1 = 0.1059 | x1 = 0.2109 | x1 = 0.3116 | x1 = 0.401 | x1 = 0.513 | x1 = 0.5913 | x1 = 0.7036 | x1 = 0.8073 | x1 = 0.885
303.15 K | 1.601 | 1.425 | 1.268 | 1.138 | 0.994 | 0.8936 | 0.7675 | 0.6649 | 0.5972
313.15 K | 1.261 | 1.126 | 1.009 | 0.8968 | 0.7829 | 0.7121 | 0.6195 | 0.5442 | 0.4899

CCCCCCCCCl + CCCCC
298 K, 101.3 kPa
Conditions | viscosity [mPa·s]
x2 = 0.1047 | 0.9664
x2 = 0.2064 | 0.8559
x2 = 0.3057 | 0.7414
x2 = 0.4042 | 0.6389
x2 = 0.5005 | 0.5441
x2 = 0.6018 | 0.4631
x2 = 0.7019 | 0.3926
x2 = 0.8048 | 0.324
x2 = 0.8982 | 0.2747
